Reference: EP4279068A1, “COMPOSITION COMPRISING A COMBINATION OF CAPSAICIN AND/OR PHENYLCAPSAICIN AND ASTAXANTHIN FOR THE PREVENTION AND TREATMENT OF INFLAMMATORY-BASED SKIN DISEASES, IN PARTICULAR ASSOCIATED WITH SKIN AGING” (Safi Medical Care s.r.l., priority 2022, dated 2023)

Experiments:
Nrf2 = Nrf2 protein expression in nuclear extracts by Western blot; type: cell-based; details: cultured human fibroblasts, final concentration 15 µM, 1 hr up to 12 hrs, Figure 3
Procedure: The cultured human fibroblasts were exposed to CAP, ASX or to a combination of the two compounds at the final concentration of 15 µM to evaluate the Nrf2 protein expression over time. […] The […] were washed twice with PBS 1X. The cells were then harvested in 1 ml of 1X PBS and centrifuged at 3000 rpm for 3 min at 4 °C. The cell pellet was carefully resuspended in […] of cold buffer containing 10 mM of HEPES (pH 7.9), 10 mM of KCl, 0.1 mM of EDTA, 0.1 mM of EGTA, 1 µM of DTT, and cocktail complete with protease inhibitors (Roche, Mannheim, Germany). The pellet was then incubated on ice for 15 min to allow the cells to swell. After this time, 15 µl of 10% NP-40 were added and the tube was mixed with vortex for 10 s. The homogenate was then centrifuged at 3000 rpm for 3 min at 4 °C and the nuclear pellet was resuspended in 30 µl of cold buffer consisting of 20 mM of HEPES (pH 7.9), 0.4 M of NaCl, 1 mM of EDTA, 1 mM of EGTA, 1 µM of DTT and protease inhibitors. The pellet was then incubated on ice for 15 min and vortexed for 10 - 15 s every 2 min. The nuclear extract was finally centrifuged at 13,000 rpm for 5 min at 4 °C. The supernatant containing the nuclear proteins was broken down by SDS-polyacrylamide gel and subjected to immunoblot analysis using anti-Nrf2 (1:500 dilution) and anti-Sp1 (1:500 dilution) antibodies.

IL-1β, IL-6 and TNF-α = assay: Inflammatory cytokine secretion by ELISA in LPS-stimulated macrophages; type: cell-based; details: macrophages pretreated 1 hr with 15 µm, then 500 ng/ml LPS for 24 hrs, Figure 5
Procedure: (§1) To evaluate the ability of the synergistic composition of the invention to inhibit the NF-kβ activity in macrophages of rats, we used the DNA-binding activity assay of NF-kβ p65 by ELISA kit for TransAM p65 transcription factor (Active Motif, Carlsbad, CA). The cells were stimulated with 500 ng/ml of LPS in the presence and absence of 15 µm of CAP, 15 µm of ASX or a 15 µm combination of CAP + ASX, for 12 hours, according to the invention. Then, the DNA-binding activity of NF-kβ p65 was determined. 12 hours thereafter LPS stimulation markedly promoted the DNA-binding activity of NF-kβ p65 and the expression of proinflammatory cytokines IL-1β, IL-6, and TNF-α. […] Consistently, similar effects were shown in terms of cytokine expression (Figure 5). An immortalized macrophage cell line was used. The cells were pretreated or not for 1 hr with 15 µm of CAP, 15 µm of ASX or 15 µm of CAP+ASX, and then exposed to 500 ng/ml of LPS for another 24 hrs. IL-1b, IL-6 and TNF-a were detected by ELISA kit purchased from Abcam, Cambridge, (MA) USA. The data are expressed as mean ±SEM, n = 4; *p < 0.001 vs. LPS, **p < 0.001 vs. CAP or ASX alone.

HO-1 = HO-1 mRNA expression by quantitative real-time PCR in cultured human fibroblasts; type: cell-based; details: human immortalized ATCC fibroblasts, peak at 15 µM
Procedure: The human immortalized ATCC fibroblasts were exposed for 6 hrs to different concentrations of CAP, ASX, or of a combination of the two compounds (5, 10, 15, and 30 µM). […] ASX causes a dose-dependent increase in HO-1 mRNA, measured relative to the non-inducible HO-2 paralog gene, which peaks (approximately 6-fold) at 15 µM) and subsequently decreases to 30 µM. […] To confirm that the HO-1 gene expression measured at the mRNA level corresponded to an equivalent increase in the heme oxygenase activity, this activity was measured at the same doses of CAP and ASX 6 and 24 hours after administration. […] The results highlight the synergistic activity of CAP and ASX in the ability to activate HO-1 gene expression. In order to determine the best ratio between the two compounds we evaluated using the same experimental model, different proportion of the two compounds at the final concentration of 15 µM (CAP/ASX 1:2, 1:1, 2:1).

NF-kβ p65 = NF-kβ p65 DNA-binding activity, TransAM p65 ELISA kit, in LPS-stimulated macrophages; type: cell-based, rats; details: 500 ng/ml LPS, 15 µm, 12 hours, Fig. 4
Procedure: as §1

| DNA-binding activity of NF-kβ p65 (NF-kβ p65) | SMILES | Nrf2 protein expression in the nuclear extracts (Nrf2) | LPS-stimulated cytokine secretion (IL-1β, IL-6 and TNF-α) (IL-1β, IL-6 and TNF-α) | increase in HO-1 mRNA, measured relative to the non-inducible HO-2 paralog gene (HO-1; 6 hrs exposure) | HO-1 gene expression (HO-1 mRNA), result in words (HO-1; 6 hrs, 5, 10, 15 and 30 µM) |
| --- | --- | --- | --- | --- | --- |
| lower DNA-binding activity | CC1=C(/C=C/C(C)=C/C=C/C(C)=C/C=C/C=C(C)/C=C/C=C(C)/C=C/C2=C(C)C(=O)C(O)CC2(C)C)C(C)(C)CC(O)C1=O (stereo not drawn) [ASX, 3,3'-dihydroxy-β-carotene-4,4'-dion] | significantly increased | significantly reduced | approximately 6 fold |  |
| lower DNA-binding activity | COc1cc(CNC(=O)CCCC/C=C/C(C)C)ccc1O [CAP, (E)-N-(4-hydroxy-3-methoxybenzyl) -8-methylnon-6-enamide] | lower increase | significantly reduced |  | slightly less active |
